# According to patent US8404650B2, “Methods of treating cancer with doxazolidine and prodrugs thereof” (priority 2005, dated 2013):
# Key:
# [1] = Functional measure of hydrolysis: pre-hydrolysis in RPMI medium or human serum, then growth of MCF-7/Adr cells; format: cell-based; conditions: read out by growth of MCF-7/Adr cells; for half-life at 10 µM: RPMI 1640 medium, RPMI 1640, 37° C., estimated from FIG. 5A, read-out: Half-life in cell culture media
# Protocol: Hydrolysis of Doxaz or DoxF in RPMI medium was performed by dissociating the cells with trypsin/EDTA, counting and then suspending the cells in growth media to a concentration of 5×10^3 cells/mL. This cell suspension was dispensed in 200 μL aliquots (1000 cells/well) into the inside wells of 96-well tissue culture plates. Plates were then incubated for 24 h at 37° C. in a humidified atmosphere of 5% CO2, and 95% air. The medium was replaced with 180 μL of growth medium prior to addition of the drug. RPMI media (no serum added) was divided into 5 mL aliquots in conical vials and heated to 37° C. in a constant temperature bath. Doxaz and DoxF were dissolved in DMSO at a concentration of 1 mM equivalents. The concentration was then corrected by measuring the solution absorbance at 480 nm (ε=11,500 M^−1 cm^−1). Drug solution (50 μl) was added to an individual conical vial and the drug was allowed to hydrolyze (at 10 μM) for 0, 10, 20, 30, 45, 60, 75 or 90 min. Experiments were performed such that all hydrolysis times would end simultaneously. After hydrolysis, 20 μL of the drug solution was added to a lane of wells on the 96-well plate to give a final concentration of 1 μM equivalents (sum of Doxorubicin, Doxaz and/or DoxF) for treatment of cells. Additionally, two lanes were treated with 20 μL of growth medium containing 1% sterile DMSO for a control. The cells were incubated at 37° C. for 3 h, at which time the drug solutions were replaced with 200 μL of fresh growth media. The cells were then incubated for 5 days, and the extent of colony formation was determined using a crystal violet staining assay measuring optical density at 588 and 770 nm.
# Hydrolysis of DoxF in RPMI medium or 100% human serum was performed as described above except drug hydrolysis was performed at 1 μM equivalents and drug treatment was at 100 nM equivalents. During drug treatment, the medium was either 90% RPMI/10% FBS or 90% RPMI/10% human serum. During cell growth, the medium was 90% RPMI/10% FBS. […]
# cancer cells = conditions: background statement; cited from earlier work
# liver cancer = conditions: circumstantial data; treatment of liver cancer; cited from earlier work
# [2] = Uptake of pentyl carbamate relative to Dox, flow cytometry, with and without fetal bovine serum; format: cell-based; conditions: 10% fetal bovine serum, flow cytometry, 3 h
# Protocol: Uptake of the pentyl carbamate relative to uptake of Dox was measured by flow cytometry, monitoring fluorescence of the Dox fluorophore as a measure of drug in cells. The measurements were performed over a period of 3 h in the presence and absence of fetal bovine serum, and the results are shown in FIG. 4. […] Further, the presence of 10% fetal bovine serum decreased the uptake of doxorubicin and the pentyl carbamate by about 25%. The more rapid uptake of the pentyl carbamate in the presence and absence of serum probably reflects its increased hydrophobicity relative to that of doxorubicin which is a cation at physiological pH. Increased hydrophobicity may also be the explanation for the effect of serum on the uptake of the carbamate; namely, the carbamate binds to serum proteins reducing drug uptake.
# human plasmin = human plasmin (Homo sapiens, UniProt P00747); experiment: Plasmin activation of prodrug and release of Doxaz (HPLC); format: biochemical; conditions: human, human plasmin; 37° C.; read-out: Half-life in the presence of plasmin
# human plasmin, sequence (P00747 581-810 limits assumed): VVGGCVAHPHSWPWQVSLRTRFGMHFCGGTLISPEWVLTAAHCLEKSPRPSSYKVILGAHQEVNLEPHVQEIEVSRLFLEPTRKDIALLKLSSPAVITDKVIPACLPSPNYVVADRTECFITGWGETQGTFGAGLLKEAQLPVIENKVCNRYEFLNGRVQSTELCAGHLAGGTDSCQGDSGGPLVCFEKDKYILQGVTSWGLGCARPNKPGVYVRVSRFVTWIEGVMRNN
# human plasmin, sequence (P00747 97-580 partner limits assumed): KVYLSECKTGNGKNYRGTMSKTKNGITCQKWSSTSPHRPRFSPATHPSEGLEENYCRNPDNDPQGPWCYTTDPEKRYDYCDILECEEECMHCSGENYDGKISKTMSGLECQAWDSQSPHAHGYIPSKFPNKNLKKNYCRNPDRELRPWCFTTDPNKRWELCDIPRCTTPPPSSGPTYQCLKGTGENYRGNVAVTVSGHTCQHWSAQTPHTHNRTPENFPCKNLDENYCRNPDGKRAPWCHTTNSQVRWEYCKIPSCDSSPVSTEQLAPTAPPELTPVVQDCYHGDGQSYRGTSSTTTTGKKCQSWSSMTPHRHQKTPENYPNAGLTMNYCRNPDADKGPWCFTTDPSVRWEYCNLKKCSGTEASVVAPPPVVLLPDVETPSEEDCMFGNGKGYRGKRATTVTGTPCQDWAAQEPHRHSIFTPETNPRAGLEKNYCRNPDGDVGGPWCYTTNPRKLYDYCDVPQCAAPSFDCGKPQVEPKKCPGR
# Protocol: Both Formulas IV and V were incubated with 15 μg/ml human plasmin and monitored by HPLC at 37° C. Just 4 min after the addition of plasmin, 20 percent of compound 10 was converted to Doxaz and roughly 50% of that Doxaz had hydrolyzed to Doxorubicin. Within 23 minutes, nearly all of the prodrug was converted to Doxaz and subsequently hydrolyzed to Doxorubicin.
# Water solubility = format: physicochemical; conditions: as di-cation
# [3] = tested on: SK-HEP-1 liver cancer cells; experiment: Drug uptake by SK-HEP-1 cells, flow cytometry; format: cell-based; conditions: in the presence of fetal bovine serum
# Protocol: Uptake of pentyl PABC-Doxaz and Dox by multidrug resistant MCF-7/Adr breast cancer cells and SK-HEP-1 liver cancer cells in the presence of fetal bovine serum was determined by flow cytometry using drug fluorescence as a measure of drug in cells.
compound,measurement,setting,value
"COc1cccc2c1C(=O)c1c(O)c3c(c(O)c1C2=O)C[C@@](O)(C(=O)CO)C[C@@H]3OC1CC2C(OCN2CN2COC3C(C)OC(O[C@H]4C[C@](O)(C(=O)CO)Cc5c(O)c6c(c(O)c54)C(=O)c4c(OC)cccc4C6=O)CC32)C(C)O1 (stereo partly drawn) [DoxF, Doxoform, reference compound]",half-life at 1 µM,"[1]; 100% human serum, 100% pooled human serum, 37° C., start 100 nM equivalents, estimated from FIG. 5B",~3 min
same,half-life at 10 µM,[1],~1.5 min
same,Anti-tumor activity above Doxorubicin,cancer cells,approximately 100 fold
"COc1cccc2c1C(=O)c1c(O)c3c(c(O)c1C2=O)C[C@@](O)(C(=O)CO)C[C@@H]3O[C@H]1C[C@@H]2NCO[C@@H]2[C@H](C)O1 [Doxaz, Doxazolidine]",Improvement relative to Doxorubicin in a clinical trial,liver cancer,75%
same,half-life at 10 µM,[1],~1 min
"COc1cccc2c1C(=O)c1c(O)c3c(c(O)c1C2=O)C[C@@](O)(C(=O)CO)C[C@@H]3O[C@H]1C[C@H](N)[C@H](O)[C@H](C)O1 [Doxorubicin, reference compound]",Decrease of uptake by 10% fetal bovine serum,[2],about 25%
"COc1cccc2c1C(=O)c1c(O)c3c(c(O)c1C2=O)C[C@@](O)(C(=O)CO)C[C@@H]3O[C@H]1C[C@H]2[C@H](OCN2C(=O)OCc2ccc(NC(=O)[C@H](CCCCN)NC(=O)[C@H](Cc3ccccc3)NC(=O)[C@@H](C)N)cc2)[C@H](C)O1 [Formula IV, D-Ala-L-Phe-L-Lys-p-aminobenzyloxycarbonyl-Doxaz]",half-life,human plasmin,~6 min
same,Water solubility,Water solubility,excellent water solubility
"CCCCCOC(=O)Nc1ccc(COC(=O)N2COC3C(C)OC(OC4CC(O)(C(=O)CO)Cc5c(O)c6c(c(O)c54)C(=O)c4c(OC)cccc4C6=O)CC32)cc1 (stereo not drawn) [Pentyl PABC-Doxaz, Pentyl 4-(N-doxazolidinylcarbonyloxymethyl)phenylcarbamate]","Uptake relative to Dox, SK-HEP-1",[3],taken up much better
